Laboratory results from US12371428B2 (Exelixis, Inc., priority 2019, dated 2025).
Blank lines part the entries; values can stand above or below the compound they belong to.

Experiments:
[1] = target: Met (phospho-Met, HGF-stimulated PC-3 prostate cancer cells) (Homo sapiens (Human), UniProt P08581); test: Met autophosphorylation ELISA in PC-3 cells (Example F); format: cell-based; details: cellular activity; Met autophosphorylation ELISA in PC-3 cells; read-out: c-Met IC50
Method in brief: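 PC-3 cells, serum-starved 3 h, were treated with compounds (8-point dose curve, 0.3% DMSO final) for 1 h, then stimulated with 100 ng/mL recombinant human HGF for 10 min. Lysate phospho-Met (panTyr) was quantified by sandwich ELISA; IC50 from 4-parameter logistic fit.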

[2] = target: Human MET (residues 956-1390) (Homo sapiens (Human), UniProt P08581); test: Human Met kinase assay, HTRF KinEase (Example D-2); format: biochemical; details: protocol of Example D-2; read-out: c-Met IC50
Human MET (residues 956-1390), sequence (P08581 956-1390): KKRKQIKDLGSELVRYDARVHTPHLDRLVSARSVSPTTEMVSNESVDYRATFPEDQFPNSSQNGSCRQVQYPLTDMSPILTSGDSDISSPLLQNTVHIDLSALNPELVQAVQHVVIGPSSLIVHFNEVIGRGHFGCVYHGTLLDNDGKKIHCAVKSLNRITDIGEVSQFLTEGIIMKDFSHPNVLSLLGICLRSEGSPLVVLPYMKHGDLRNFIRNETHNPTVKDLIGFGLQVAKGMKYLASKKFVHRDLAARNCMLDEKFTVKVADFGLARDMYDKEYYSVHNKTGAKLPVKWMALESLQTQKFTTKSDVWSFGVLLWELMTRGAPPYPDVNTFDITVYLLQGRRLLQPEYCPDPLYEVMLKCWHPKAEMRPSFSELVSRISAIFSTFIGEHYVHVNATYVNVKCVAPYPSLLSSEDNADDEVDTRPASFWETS
Method in brief: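 MET kinase domain (956-1390), 0.1 ng/well, in buffer with 5 mM MgCl2, 1 mM DTT and 1 mM MnCl2, phosphorylated a biotinylated peptide at ATP Km for 40 min at RT; 10 concentrations, 3% DMSO final. EDTA-stopped HTRF read after 60 min; IC50 from a 4-parameter logistic fit.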

[3] = target: KDR (phospho-KDR, VEGF165-stimulated HUVEC cells) (Homo sapiens (Human), UniProt P35968); test: KDR autophosphorylation ELISA in HUVEC cells (Example G); format: cell-based; details: cellular activity; KDR autophosphorylation ELISA in HUVEC cells
KDR (phospho-KDR, VEGF165-stimulated HUVEC cells), sequence (P35968 20-1356): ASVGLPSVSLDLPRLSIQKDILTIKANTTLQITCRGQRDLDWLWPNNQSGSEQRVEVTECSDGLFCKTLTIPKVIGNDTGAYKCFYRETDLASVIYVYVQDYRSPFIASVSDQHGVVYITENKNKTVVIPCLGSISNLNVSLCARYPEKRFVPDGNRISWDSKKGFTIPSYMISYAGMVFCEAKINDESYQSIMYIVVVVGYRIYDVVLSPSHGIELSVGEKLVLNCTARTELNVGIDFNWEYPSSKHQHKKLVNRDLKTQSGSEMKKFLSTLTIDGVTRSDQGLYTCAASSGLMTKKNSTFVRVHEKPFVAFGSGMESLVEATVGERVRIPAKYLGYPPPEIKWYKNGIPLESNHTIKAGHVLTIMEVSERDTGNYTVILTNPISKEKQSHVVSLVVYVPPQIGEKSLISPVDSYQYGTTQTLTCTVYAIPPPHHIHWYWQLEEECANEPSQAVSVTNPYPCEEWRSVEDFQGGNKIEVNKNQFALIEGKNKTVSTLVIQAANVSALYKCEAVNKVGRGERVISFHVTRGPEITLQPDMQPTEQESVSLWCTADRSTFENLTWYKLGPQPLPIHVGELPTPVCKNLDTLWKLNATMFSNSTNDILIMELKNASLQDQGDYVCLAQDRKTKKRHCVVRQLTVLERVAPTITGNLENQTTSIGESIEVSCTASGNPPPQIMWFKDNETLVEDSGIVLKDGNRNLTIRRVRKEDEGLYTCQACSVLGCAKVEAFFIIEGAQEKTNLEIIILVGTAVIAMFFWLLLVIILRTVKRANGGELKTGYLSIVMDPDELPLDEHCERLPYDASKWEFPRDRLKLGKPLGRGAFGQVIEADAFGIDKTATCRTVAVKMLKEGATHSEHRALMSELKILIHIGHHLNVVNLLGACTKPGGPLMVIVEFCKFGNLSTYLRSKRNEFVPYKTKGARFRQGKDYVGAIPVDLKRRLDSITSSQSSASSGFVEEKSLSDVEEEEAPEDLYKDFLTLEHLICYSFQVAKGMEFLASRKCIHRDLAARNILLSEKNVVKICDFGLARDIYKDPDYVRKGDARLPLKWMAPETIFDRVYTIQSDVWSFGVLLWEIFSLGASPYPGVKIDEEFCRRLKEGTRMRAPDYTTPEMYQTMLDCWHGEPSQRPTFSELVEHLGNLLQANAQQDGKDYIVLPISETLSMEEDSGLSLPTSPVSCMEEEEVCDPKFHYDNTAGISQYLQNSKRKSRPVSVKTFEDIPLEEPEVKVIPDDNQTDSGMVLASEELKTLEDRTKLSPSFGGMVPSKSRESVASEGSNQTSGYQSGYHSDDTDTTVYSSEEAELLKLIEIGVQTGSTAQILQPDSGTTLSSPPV
Method in brief: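 Read-out: phospho-KDR in cell lysates by DuoSet IC ELISA, normalised between VEGF-stimulated DMSO wells (100%) and unstimulated wells (0%). Human endothelial cells were starved overnight in serum-free medium, exposed to compound for 1 h, and then pulsed with 100 ng/mL VEGF165 for 5 min.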

[4] = target: Human MER (residues 528-999) (Homo sapiens (Human), UniProt Q12866); test: Human Mer kinase assay, HTRF KinEase (Example C-2); format: biochemical; details: protocol of Example C-2
Human MER (residues 528-999), sequence (Q12866 528-999): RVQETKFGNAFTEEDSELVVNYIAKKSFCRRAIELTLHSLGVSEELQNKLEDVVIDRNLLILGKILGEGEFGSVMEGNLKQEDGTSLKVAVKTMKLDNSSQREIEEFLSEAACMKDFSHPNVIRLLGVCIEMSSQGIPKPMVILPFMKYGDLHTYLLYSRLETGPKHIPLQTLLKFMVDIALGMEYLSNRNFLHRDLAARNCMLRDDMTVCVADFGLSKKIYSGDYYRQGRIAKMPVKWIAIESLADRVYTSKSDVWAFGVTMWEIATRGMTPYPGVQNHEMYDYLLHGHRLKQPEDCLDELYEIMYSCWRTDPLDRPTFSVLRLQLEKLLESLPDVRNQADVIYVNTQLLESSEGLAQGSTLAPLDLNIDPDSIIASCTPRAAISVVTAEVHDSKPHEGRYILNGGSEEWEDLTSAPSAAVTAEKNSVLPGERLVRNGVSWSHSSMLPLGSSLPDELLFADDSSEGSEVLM
Method in brief: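 Recombinant MER 528-999 (1 ng/well) in buffer with 5 mM MgCl2 and 1 mM DTT was reacted with biotinylated peptide and ATP at Km (40 μM) for 60 min at room temperature. EDTA stop with SA-XL665 and Eu3+ TK antibody, then 665/620 nm HTRF read; IC50 from 4-parameter fit.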

Met (phospho-Met, HGF-stimulated PC-3 prostate cancer cells), sequence (P08581 25-1390): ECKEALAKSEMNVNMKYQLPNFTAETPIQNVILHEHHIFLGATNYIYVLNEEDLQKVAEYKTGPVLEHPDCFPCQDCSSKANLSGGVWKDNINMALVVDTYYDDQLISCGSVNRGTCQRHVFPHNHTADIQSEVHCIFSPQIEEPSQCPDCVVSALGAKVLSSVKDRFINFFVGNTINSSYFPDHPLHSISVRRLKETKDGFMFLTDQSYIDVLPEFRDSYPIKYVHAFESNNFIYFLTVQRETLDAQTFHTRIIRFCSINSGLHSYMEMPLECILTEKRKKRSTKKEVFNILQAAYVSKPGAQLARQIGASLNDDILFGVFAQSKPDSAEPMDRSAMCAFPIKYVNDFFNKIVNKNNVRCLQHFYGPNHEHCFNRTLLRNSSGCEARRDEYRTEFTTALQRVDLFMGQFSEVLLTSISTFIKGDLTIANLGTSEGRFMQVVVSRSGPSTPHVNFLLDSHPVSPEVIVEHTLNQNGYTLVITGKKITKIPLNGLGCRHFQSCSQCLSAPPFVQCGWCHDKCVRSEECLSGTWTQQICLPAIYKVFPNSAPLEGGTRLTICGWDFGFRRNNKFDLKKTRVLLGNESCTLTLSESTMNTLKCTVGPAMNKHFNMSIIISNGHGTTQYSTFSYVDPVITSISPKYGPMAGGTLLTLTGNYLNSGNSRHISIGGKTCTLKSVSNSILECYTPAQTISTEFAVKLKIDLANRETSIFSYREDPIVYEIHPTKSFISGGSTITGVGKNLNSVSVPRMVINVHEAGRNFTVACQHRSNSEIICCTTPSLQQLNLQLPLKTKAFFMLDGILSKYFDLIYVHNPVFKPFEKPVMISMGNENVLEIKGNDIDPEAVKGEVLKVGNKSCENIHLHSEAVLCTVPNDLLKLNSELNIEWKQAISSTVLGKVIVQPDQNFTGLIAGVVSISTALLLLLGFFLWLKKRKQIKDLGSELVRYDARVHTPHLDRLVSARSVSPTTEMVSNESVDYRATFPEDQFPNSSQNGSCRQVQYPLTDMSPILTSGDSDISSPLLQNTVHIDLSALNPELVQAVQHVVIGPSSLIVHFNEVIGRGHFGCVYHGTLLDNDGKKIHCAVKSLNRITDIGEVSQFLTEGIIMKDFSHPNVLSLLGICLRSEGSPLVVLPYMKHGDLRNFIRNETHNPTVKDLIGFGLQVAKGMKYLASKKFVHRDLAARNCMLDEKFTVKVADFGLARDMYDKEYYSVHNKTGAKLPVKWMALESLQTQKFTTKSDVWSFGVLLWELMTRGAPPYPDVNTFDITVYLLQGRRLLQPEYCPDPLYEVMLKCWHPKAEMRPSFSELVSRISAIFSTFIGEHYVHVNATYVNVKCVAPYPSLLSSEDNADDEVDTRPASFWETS

Compound: COc1cc2nccc(Oc3ccc(NC(=O)c4cn(C)c(CF)c(-c5ccc(F)cc5)c4=O)cc3)c2nc1OC [Compound 560, N-[4-[(6,7-Dimethoxy-1,5-naphthyridin-4-yl)oxy]phenyl]-6-(fluoromethyl)-5-(4-fluorophenyl)-1-methyl-4-oxopyridine-3-carboxamide]
IC50 [1]: < 100 nM
IC50 [2]: < 100 nM
IC50 [3]: 100 to 300 nM
IC50 [4]: < 100 nM

Compound: COc1ccc2nccc(Oc3ccc(NC(=O)c4cn(C)c(CF)c(-c5ccc(F)cc5)c4=O)cc3F)c2n1 [Compound 561, N-[3-Fluoro-4-[(6-methoxy-1,5-naphthyridin-4-yl)oxy]phenyl]-6-(fluoromethyl)-5-(4-fluorophenyl)-1-methyl-4-oxopyridine-3-carboxamide]
IC50 [1]: < 100 nM
IC50 [2]: 100 to 300 nM
IC50 [3]: > 300 nM
IC50 [4]: < 100 nM

Compound: CCn1cc(C(=O)Nc2ccc(Oc3ccnc4cc(OC)c(OC)nc34)c(F)c2)c(=O)c(-c2ccc(F)cc2)c1CF [Compound 562, N-[4-[(6,7-Dimethoxy-1,5-naphthyridin-4-yl)oxy]-3-fluorophenyl]-1-ethyl-6-(fluoromethyl)-5-(4-fluorophenyl)-4-oxopyridine-3-carboxamide]
IC50 [1]: < 100 nM
IC50 [2]: 100 to 300 nM
IC50 [3]: 100 to 300 nM
IC50 [4]: < 100 nM

Next, values leading:

IC50 [1]: < 100 nM
IC50 [2]: 100 to 300 nM
IC50 [3]: < 100 nM
IC50 [4]: < 100 nM
Compound: COc1cc2nccc(Oc3ccc(NC(=O)c4cn(C)c(CF)c(-c5ccc(F)cc5C)c4=O)cc3F)c2nc1OC [Compound 556, N-[4-[(6,7-Dimethoxy-1,5-naphthyridin-4-yl)oxy]-3-fluorophenyl]-6-(fluoromethyl)-5-(4-fluoro-2-methylphenyl)-1-methyl-4-oxopyridine-3-carboxamide]

IC50 [1]: < 100 nM
IC50 [2]: < 100 nM
IC50 [3]: 100 to 300 nM
IC50 [4]: < 100 nM
Compound: COCCOc1nc2c(Oc3ccc(NC(=O)c4cn(C)c(CF)c(-c5ccc(F)cc5)c4=O)cc3F)ccnc2cc1OC [Compound 557, N-[3-Fluoro-4-[[7-methoxy-6-(2-methoxyethoxy)-1,5-naphthyridin-4-yl]oxy]phenyl]-6-(fluoromethyl)-5-(4-fluorophenyl)-1-methyl-4-oxopyridine-3-carboxamide]

IC50 [1]: < 100 nM
IC50 [2]: 100 to 300 nM
IC50 [3]: 100 to 300 nM
IC50 [4]: < 100 nM
Compound: CCn1cc(C(=O)Nc2ccc(Oc3ccnc4cc(OC)c(OC)nc34)cc2)c(=O)c(-c2ccc(F)cc2)c1CF [Compound 558, N-[4-[(6,7-Dimethoxy-1,5-naphthyridin-4-yl)oxy]phenyl]-1-ethyl-6-(fluoromethyl)-5-(4-fluorophenyl)-4-oxopyridine-3-carboxamide]

IC50 [1]: < 100 nM
IC50 [2]: < 100 nM
IC50 [3]: > 300 nM
IC50 [4]: < 100 nM
Compound: CCn1cc(C(=O)Nc2ccc(Oc3ccnc4cc(OC)cnc34)c(F)c2)c(=O)c(-c2ccc(F)cc2)c1CF [Compound 559, 1-Ethyl-N-[3-fluoro-4-[(7-methoxy-1,5-naphthyridin-4-yl)oxy]phenyl]-6-(fluoromethyl)-5-(4-fluorophenyl)-4-oxopyridine-3-carboxamide]
